Data taken from patent publication US20230270804A1, “ANTI-HYPERCHOLESTEROLEMIA COMPOSITION AND A METHOD OF MANUFACTURING THE SAME” (NBI BIOSCIENCES PRIVATE LIMITED, priority 2020, published 2023).

Experiment: Therapeutic study: hematological parameters
Format: in vivo, Wistar strain albino rats
Conditions: for Lymphocyte / Neutrophils: in % (unit assumed); for Eosinophil: unit assumed
Experimental: Wistar strain albino rats of body weight ranging from 190-225 g were selected for the present study. The temperature and humidity were kept at optimum (22+2° C.; 40-70% and animals were exposed to natural chronological day night cycles. The experiments were carried out in conformity with the Institutional Animal Ethics Committee.
The 6 groups were as follows: • 1. Normal Control • 2.
1.5-2 ml blood sample was taken from retino-orbital chamber in vials for biochemical estimations at every 15 days. Investigations performed included detailed Total Cholesterol—TC (mg/dl), Triglyceride—TG (mg/dl), High Density Lipoprotein—HDL-C (mg/dl), Low Density Lipoprotein—LDL-C (mg/dl), Very Low-Density Lipoprotein—VLDL (mg/dl), WBC (10^3/u1), RBC (10^6/u1), Hb (g/dl), PCV (%), Reticulocyte (%), Platelet count 10^5/mm^3, Clotting time (Sec), Neutrophils, Lymphocyte, Monocyte and Eosinophil. The estimations were done with Ecoline kits from Erba Mannheim, ERBA diagnostics Mannheml, Germany using Semi Autoanalyzer RX50 of MicroLabs Instruments and COUNCELL21 of Tulip Diagnostics Pvt. Ltd. Lipid peroxidation (Plasma & Liver), HMG Co-Reductase, Creatine phosphokinase (CPK), Lactate dehydrogenase (LDH), SGOT and SGPT were estimated at the end of both the studies using the kits.

For `CC(C)c1c(C(=O)Nc2ccccc2)c(-c2ccccc2)c(-c2ccc(F)cc2)n1CC[C@@H](O)C[C@@H](O)CC(=O)O` [Statin, Atorvastatin], the Clotting time (HFD continued, day 0) was 113.33 ± 1.15 s, the Hb (HFD continued, day 0) was 12.30 ± 0.20 g/dL and the Monocyte (HFD continued, day 0) was 1.35%. The PCV (HFD continued, day 0) was 42.57 ± 1.36%, the Platelet count (HFD continued, day 0) was 1070 ± 13.9 10³/µL and the RBC (HFD continued, day 0) was 7.93 ± 0.15 10^6/μl. The Reticulocyte (HFD continued, day 0) was 1.28 ± 0.03%, the Lymphocyte (HFD continued, day 0) was 72 and the Neutrophils (HFD continued, day 0) was 25.5. For the same compound, the Eosinophil (HFD continued, day 0) was 1.25%, the Clotting time (HFD continued, day 15) was 114.33 ± 1.15 s and the Hb (HFD continued, day 15) was 12.40 ± 0.20 g/dL. For the same compound, the Monocyte (HFD continued, day 15) was 1.35%, the PCV (HFD continued, day 15) was 43.43 ± 1.53% and the Platelet count (HFD continued, day 15) was 1070 ± 11.6 10³/µL. For the same compound, the RBC (HFD continued, day 15) was 8.07 ± 0.15 10^6/μl, the WBC (HFD continued, day 15) was 8.58 ± 0.32 103/μl and the Lymphocyte (HFD continued, day 15) was 72. For the same compound, the Neutrophils (HFD continued, day 15) was 25.5, the Eosinophil (HFD continued, day 15) was 1.25% and the Clotting time (HFD continued, day 30) was 114.37 ± 0.71 s. For the same compound, the Hb (HFD continued, day 30) was 12.83 ± 0.25 g/dL, the PCV (HFD continued, day 30) was 42.85 ± 0.25% and the Platelet count (HFD continued, day 30) was 1087 ± 3.61 10³/µL. For the same compound, the RBC (HFD continued, day 30) was 7.95 ± 0.03 10^6/μl, the Reticulocyte (HFD continued, day 30) was 1.31 ± 0.03% and the WBC (HFD continued, day 30) was 8.72 ± 0.07 103/μl. It also gave a Lymphocyte (HFD continued, day 30) of 71.2, a Neutrophils (HFD continued, day 30) of 26 and an Eosinophil (HFD continued, day 30) of 1.28%. The Clotting time (HFD continued, day 45) was 114.40 ± 0.46 s, the Hb (HFD continued, day 45) was 12.88 ± 0.28 g/dL and the Monocyte (HFD continued, day 45) was 1.33%. The PCV (HFD continued, day 45) was 42.93 ± 0.42%, the Platelet count (HFD continued, day 45) was 1080 ± 14.5 10³/µL and the RBC (HFD continued, day 45) was 7.90 ± 0.05 10^6/μl. The Reticulocyte (HFD continued, day 45) was 1.33 ± 0.02%, the WBC (HFD continued, day 45) was 8.65 ± 0.08 103/μl and the Lymphocyte (HFD continued, day 45) was 71.67. The Neutrophils (HFD continued, day 45) was 25.73, the Eosinophil (HFD continued, day 45) was 1.27% and the Clotting time (HFD continued, day 60) was 113.33 ± 1.24 s. For the same compound, the Hb (HFD continued, day 60) was 12.76 ± 0.28 g/dL, the PCV (HFD continued, day 60) was 42.53 ± 0.57% and the Platelet count (HFD continued, day 60) was 1070 ± 17 10³/µL. For the same compound, the RBC (HFD continued, day 60) was 7.83 ± 0.09 10^6/μl, the WBC (HFD continued, day 60) was 8.57 ± 0.12 103/μl and the Lymphocyte (HFD continued, day 60) was 71.67. The Neutrophils (HFD continued, day 60) was 25.70, the Eosinophil (HFD continued, day 60) was 1.28% and the Clotting time (HFD discontinued, day 0) was 113.33 ± 1.53 s. The Hb (HFD discontinued, day 0) was 12.53 ± 0.38 g/dL, the Monocyte (HFD discontinued, day 0) was 1.35% and the PCV (HFD discontinued, day 0) was 41.43 ± 1.07%. The Platelet count (HFD discontinued, day 0) was 1080 ± 11 10³/µL, the RBC (HFD discontinued, day 0) was 7.73 ± 0.52 10^6/μl and the Reticulocyte (HFD discontinued, day 0) was 1.24 ± 0.04%. For the same compound, the WBC (HFD discontinued, day 0) was 8.67 ± 0.59 103/μl, the Lymphocyte (HFD discontinued, day 0) was 72 and the Neutrophils (HFD discontinued, day 0) was 25.87. For the same compound, the Eosinophil (HFD discontinued, day 0) was 1.25%, the Clotting time (HFD discontinued, day 15) was 113.50 ± 1.00 s and the Hb (HFD discontinued, day 15) was 12.58 ± 0.08 g/dL. For the same compound, the Monocyte (HFD discontinued, day 15) was 1.35%, the PCV (HFD discontinued, day 15) was 41.63 ± 1.02% and the Platelet count (HFD discontinued, day 15) was 1087 ± 8.02 10³/µL. The RBC (HFD discontinued, day 15) was 7.97 ± 0.32 10^6/μl, the Reticulocyte (HFD discontinued, day 15) was 1.26 ± 0.01% and the WBC (HFD discontinued, day 15) was 8.57 ± 0.42 103/μl. The Lymphocyte (HFD discontinued, day 15) was 72, the Neutrophils (HFD discontinued, day 15) was 25.97 and the Eosinophil (HFD discontinued, day 15) was 1.25%. It also gave a Clotting time (HFD discontinued, day 30) of 113.00 ± 0.70 s, a Hb (HFD discontinued, day 30) of 12.62 ± 0.07 g/dL and a PCV (HFD discontinued, day 30) of 41.64 ± 0.07%. For the same compound, the Platelet count (HFD discontinued, day 30) was 1086 ± 8.19 10³/µL, the RBC (HFD discontinued, day 30) was 7.73 ± 0.03 10^6/μl and the Reticulocyte (HFD discontinued, day 30) was 1.27 ± 0.02%. The WBC (HFD discontinued, day 30) was 8.58 ± 0.04 103/μl, the Lymphocyte (HFD discontinued, day 30) was 71.3 and the Neutrophils (HFD discontinued, day 30) was 26.1. It also gave an Eosinophil (HFD discontinued, day 30) of 1.26%, a Clotting time (HFD discontinued, day 45) of 113.17 ± 0.35 s and a Hb (HFD discontinued, day 45) of 12.87 ± 0.26 g/dL. For the same compound, the Monocyte (HFD discontinued, day 45) was 1.27%, the PCV (HFD discontinued, day 45) was 41.42 ± 0.50% and the Platelet count (HFD discontinued, day 45) was 1070 ± 18.7 10³/µL. The RBC (HFD discontinued, day 45) was 7.65 ± 0.08 10^6/μl, the Reticulocyte (HFD discontinued, day 45) was 1.28 ± 0.07% and the WBC (HFD discontinued, day 45) was 8.51 ± 0.14 103/μl. For the same compound, the Lymphocyte (HFD discontinued, day 45) was 71.58, the Neutrophils (HFD discontinued, day 45) was 25.9 and the Eosinophil (HFD discontinued, day 45) was 1.25%. It also gave a Clotting time (HFD discontinued, day 60) of 112.04 ± 1.28 s, a Hb (HFD discontinued, day 60) of 12.74 ± 0.27 g/dL and a Monocyte (HFD discontinued, day 60) of 1.25%. For the same compound, the PCV (HFD discontinued, day 60) was 41.01 ± 0.64%, the Platelet count (HFD discontinued, day 60) was 1060 ± 20.3 10³/µL and the RBC (HFD discontinued, day 60) was 7.57 ± 0.11 10^6/μl. For the same compound, the Reticulocyte (HFD discontinued, day 60) was 1.26 ± 0.06%, the WBC (HFD discontinued, day 60) was 8.42 ± 0.16 103/μl and the Lymphocyte (HFD discontinued, day 60) was 71.70. It also gave a Neutrophils (HFD discontinued, day 60) of 25.81 and an Eosinophil (HFD discontinued, day 60) of 1.24%.
